Key:
[1] = molecular target: EGFR (Homo sapiens (Human), UniProt P00533); assay: EGFR Z'-LYTE kinase assay; format: biochemical; conditions: 1 h pre-incubation, Km ATP
Description: (§1) BMX, TXK, EGFR, ERBB2, ERBB4, JAK3, BLK kinase activity was measured using the Z′-LYTE assay at Thermo Fisher. A 10-point dose response (final concentration in assay ranged from 10 μM to 0.5 nM in 3-fold dilution per dilution step) was generated with 1 h incubation of the test compound with the kinase prior to initiation of the kinase reaction by the addition of ATP. ATP concentration in the assay was Km ATP for the different kinases. IC50 values are determined by curve fitting of the experimental results at Thermo Fisher.

[2] = molecular target: T1, BTK (Homo sapiens (Human), UniProt Q06187); assay: BTK inhibition in a biochemical assay, relative to acalabrutinib
Target sequence in this assay (Q06187 whole entry, species assumed): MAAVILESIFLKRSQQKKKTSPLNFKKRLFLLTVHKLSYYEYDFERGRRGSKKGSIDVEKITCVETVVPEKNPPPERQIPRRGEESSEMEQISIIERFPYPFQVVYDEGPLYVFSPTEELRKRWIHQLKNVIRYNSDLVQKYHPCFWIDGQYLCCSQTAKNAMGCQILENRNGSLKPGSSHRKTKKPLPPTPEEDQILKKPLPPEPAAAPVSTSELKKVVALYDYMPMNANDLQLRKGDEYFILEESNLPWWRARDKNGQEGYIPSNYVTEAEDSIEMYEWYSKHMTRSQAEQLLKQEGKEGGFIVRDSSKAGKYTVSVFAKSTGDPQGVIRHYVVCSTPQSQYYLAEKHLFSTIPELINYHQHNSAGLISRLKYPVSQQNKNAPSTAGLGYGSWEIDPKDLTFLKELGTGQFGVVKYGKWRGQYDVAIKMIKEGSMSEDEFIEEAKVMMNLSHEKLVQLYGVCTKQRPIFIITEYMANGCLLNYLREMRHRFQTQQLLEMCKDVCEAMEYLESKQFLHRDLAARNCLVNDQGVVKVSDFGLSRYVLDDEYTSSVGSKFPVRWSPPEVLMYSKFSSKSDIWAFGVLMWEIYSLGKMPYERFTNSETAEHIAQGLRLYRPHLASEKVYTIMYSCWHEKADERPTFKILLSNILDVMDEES

[3] = molecular target: BTK wild type (BTK-WT) (Homo sapiens (Human), UniProt Q06187); assay: BTK-WT LanthaScreen, inhibition constants from IC50 over time; format: binding
Sequence of BTK wild type (BTK-WT) (Q06187 whole entry): as the sequence (Q06187 whole entry, species assumed) above
Description: Inhibitory activity on BTK wild type (BTK-WT) and BTK Cys481Ser mutant (BTK-C481S) was measured using the LanthaScreen assay technology from ThermoFisher according to manufacturer's protocol. BTK-WT or BTK-C481 S (Genscript) were mixed and diluted with Eu-anti-GST antibody (Invitrogen) in Kinase buffer (50 mM Hepes pH 7.5+10 mM MgCl2+1 mM EGTA+0.01% Brij-35) to 15 and 6 nM, respectively. Final concentration in the assay for enzyme and antibody are 5 and 2 nM, respectively. Tracer (Kinase Tracer 236, Invitrogen) is diluted in Kinase buffer to 90 nM. Final concentration in the assay is 30 nM. Serial dilutions log 10 from 1 mM to 3.16 nM of test compounds are made in 100% DMSO. The dilutions in DMSO are then diluted 33-fold in Kinase buffer (50 mM Hepes pH 7.5+10 mM MgCl2+1 mM EGTA+0.01% Brij-35). The assay is performed as follows: 5 μL/well of BTK-WT or BTK-C481S enzyme and EU-anti-GST antibody dilution is mixed with 5 μL/well tracer dilution and 5 μL/well of compound dilution in Kinase buffer. Final compound concentration in the assay ranged from 10 μM to 0.316 nM, with 1% DMSO final concentration in assay. Mixture was incubated at room temperature in the dark and at different times of incubation (5 min, 10 min, 20 min, 30 min, 40 min, 60 min, 90 min, 120 min, 180 min and 300 min) the TR-FRET signal was read at 615 nm and 665 nm. The ratio 665/615 was used to calculate values expressed as percentage of the difference in readout (S/N) of the controls with and without Tracer. IC50 values for each timepoint were determined by curve fitting of the experimental results in Dotmatics. […] The kinetics in covalent binding are determined by affinity of the compound to BTK and by the reactivity of the electrophile. Using the data for M27 from the LanthaScreen assay on BTK-WT, the inhibition constants can be calculated for the parent and the metabolite. […] The Ki and kinact parameters were derived from IC50 values over time, according to the method of Krippendorff et al (J Biomol Screen. 2009, 14(8):913-23) with measured Km=102 nM for the tracer used in the assay.

[4] = molecular target: TXK (Homo sapiens (Human), UniProt P42681); assay: DiscoveRx Kd dose response, TXK; format: binding
Sequence of TXK (P42681 whole entry): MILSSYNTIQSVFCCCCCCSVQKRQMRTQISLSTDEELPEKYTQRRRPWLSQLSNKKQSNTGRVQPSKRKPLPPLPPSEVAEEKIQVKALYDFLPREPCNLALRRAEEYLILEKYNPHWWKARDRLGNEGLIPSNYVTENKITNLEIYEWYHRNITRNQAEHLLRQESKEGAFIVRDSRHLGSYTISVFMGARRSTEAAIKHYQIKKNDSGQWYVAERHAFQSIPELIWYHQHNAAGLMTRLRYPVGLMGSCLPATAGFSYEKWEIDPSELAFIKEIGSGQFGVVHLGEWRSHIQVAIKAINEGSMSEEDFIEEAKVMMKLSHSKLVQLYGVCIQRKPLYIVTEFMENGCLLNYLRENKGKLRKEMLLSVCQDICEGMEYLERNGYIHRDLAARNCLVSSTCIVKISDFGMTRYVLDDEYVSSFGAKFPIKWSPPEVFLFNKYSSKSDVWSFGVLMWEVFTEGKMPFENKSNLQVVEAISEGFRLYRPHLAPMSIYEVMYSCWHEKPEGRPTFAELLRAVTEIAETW
Description: (§2) Kinase profiling was performed with M27 was done at DiscoveRx at a single dose of 1 μM on all available kinases (KINOMEscan). The overall kinase selectivity score is in Table 6. […] Kinases inhibited >65% at 1 μM for M27 were followed up with a dose response at DiscoveRx. The M27 had IC50 values <1 μM for almost the same set of kinases with exception of TXK, but with additional inhibition of BRK (PTK6).

[5] = molecular target: ERBB2 (Homo sapiens (Human), UniProt P04626); assay: DiscoveRx Kd dose response, ERBB2; format: binding
Description: as §2

[6] = molecular target: TEC (Homo sapiens (Human), UniProt P42680); assay: DiscoveRx Kd dose response, TEC; format: binding
Description: as §2

[7] = molecular target: BRK (PTK6) (Homo sapiens (Human), UniProt Q13882); assay: DiscoveRx Kd dose response, BRK (PTK6); format: binding
Sequence of BRK (PTK6) (Q13882 whole entry): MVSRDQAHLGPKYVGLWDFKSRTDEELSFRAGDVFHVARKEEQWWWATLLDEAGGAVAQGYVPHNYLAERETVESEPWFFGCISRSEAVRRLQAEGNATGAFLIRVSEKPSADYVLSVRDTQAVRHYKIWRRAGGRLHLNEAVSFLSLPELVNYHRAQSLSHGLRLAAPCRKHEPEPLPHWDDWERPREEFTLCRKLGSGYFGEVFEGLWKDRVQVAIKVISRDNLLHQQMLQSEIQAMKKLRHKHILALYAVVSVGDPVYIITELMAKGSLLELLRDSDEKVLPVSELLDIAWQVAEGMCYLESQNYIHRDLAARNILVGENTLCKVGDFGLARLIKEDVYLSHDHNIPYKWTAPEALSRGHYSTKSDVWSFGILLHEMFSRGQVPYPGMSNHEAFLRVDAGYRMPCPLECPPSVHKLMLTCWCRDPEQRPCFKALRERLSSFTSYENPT
Description: as §2

[8] = molecular target: LIMK1 (Homo sapiens (Human), UniProt P53667); assay: DiscoveRx Kd dose response, LIMK1; format: binding
Sequence of LIMK1 (P53667 whole entry): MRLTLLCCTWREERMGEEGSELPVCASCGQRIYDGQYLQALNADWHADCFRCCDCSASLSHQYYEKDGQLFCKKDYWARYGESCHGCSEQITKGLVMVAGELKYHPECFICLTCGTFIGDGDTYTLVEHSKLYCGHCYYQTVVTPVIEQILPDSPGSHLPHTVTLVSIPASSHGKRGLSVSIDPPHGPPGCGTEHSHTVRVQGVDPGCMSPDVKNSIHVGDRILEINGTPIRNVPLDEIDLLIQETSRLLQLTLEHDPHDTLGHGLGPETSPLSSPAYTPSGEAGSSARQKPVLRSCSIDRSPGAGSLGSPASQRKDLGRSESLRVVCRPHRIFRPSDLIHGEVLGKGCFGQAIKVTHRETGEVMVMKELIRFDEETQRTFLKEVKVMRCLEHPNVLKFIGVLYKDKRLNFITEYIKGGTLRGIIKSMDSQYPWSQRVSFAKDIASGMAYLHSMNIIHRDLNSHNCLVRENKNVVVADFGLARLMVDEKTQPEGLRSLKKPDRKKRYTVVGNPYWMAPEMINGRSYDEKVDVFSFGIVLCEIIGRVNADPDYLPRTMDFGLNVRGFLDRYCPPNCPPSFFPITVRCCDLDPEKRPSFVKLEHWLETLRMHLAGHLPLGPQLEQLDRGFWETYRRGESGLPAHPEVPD
Description: as §2

[9] = molecular target: ERBB4 (Homo sapiens (Human), UniProt Q15303); assay: ERBB4 Z'-LYTE kinase assay; format: biochemical; conditions: 1 h pre-incubation, Km ATP
Description: as §1

[10] = molecular target: BLK (Homo sapiens (Human), UniProt P51451); assay: BLK Z'-LYTE kinase assay; format: biochemical; conditions: 1 h pre-incubation, Km ATP
Description: as §1

[11] = molecular target: CYP1A2 (Homo sapiens (Human), UniProt P05177)
Sequence of CYP1A2 (P05177 whole entry): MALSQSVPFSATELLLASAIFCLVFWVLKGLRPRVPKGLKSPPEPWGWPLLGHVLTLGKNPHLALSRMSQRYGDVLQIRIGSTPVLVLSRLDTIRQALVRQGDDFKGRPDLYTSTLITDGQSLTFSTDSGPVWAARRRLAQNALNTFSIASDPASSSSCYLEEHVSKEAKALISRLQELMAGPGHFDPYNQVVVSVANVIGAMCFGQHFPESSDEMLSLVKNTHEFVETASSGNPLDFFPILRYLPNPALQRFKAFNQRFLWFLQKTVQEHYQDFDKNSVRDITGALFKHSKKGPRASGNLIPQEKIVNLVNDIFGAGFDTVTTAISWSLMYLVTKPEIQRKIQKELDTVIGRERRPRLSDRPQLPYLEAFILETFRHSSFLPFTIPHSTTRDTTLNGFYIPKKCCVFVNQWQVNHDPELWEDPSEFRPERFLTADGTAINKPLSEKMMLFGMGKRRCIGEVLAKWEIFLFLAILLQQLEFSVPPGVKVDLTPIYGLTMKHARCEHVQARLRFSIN

[12] = molecular target: T1, BTK; assay: DiscoveRx Kd dose response, BTK; format: binding
Description: as §2

[13] = molecular target: CYP2C19 (Homo sapiens (Human), UniProt P33261); assay: CYP inhibition, CYP2C19; format: in vitro ADME
Sequence of CYP2C19 (P33261 whole entry): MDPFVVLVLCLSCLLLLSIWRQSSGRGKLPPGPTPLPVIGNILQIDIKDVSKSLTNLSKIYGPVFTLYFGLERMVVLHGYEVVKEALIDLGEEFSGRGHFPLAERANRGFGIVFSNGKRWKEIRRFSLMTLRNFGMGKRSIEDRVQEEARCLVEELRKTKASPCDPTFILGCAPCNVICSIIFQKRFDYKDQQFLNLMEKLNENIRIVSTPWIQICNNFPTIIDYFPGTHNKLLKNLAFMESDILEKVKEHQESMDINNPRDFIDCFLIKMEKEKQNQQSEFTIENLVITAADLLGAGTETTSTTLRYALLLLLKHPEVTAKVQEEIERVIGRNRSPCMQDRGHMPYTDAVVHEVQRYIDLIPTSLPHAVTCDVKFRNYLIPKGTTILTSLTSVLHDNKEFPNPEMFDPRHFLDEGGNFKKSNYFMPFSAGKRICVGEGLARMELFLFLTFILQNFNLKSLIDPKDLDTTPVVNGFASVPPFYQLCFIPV

[14] = molecular target: JAK3 (Homo sapiens (Human), UniProt P52333); assay: JAK3 Z'-LYTE kinase assay; format: biochemical; conditions: 1 h pre-incubation, Km ATP
Description: as §1

[15] = molecular target: CYP2C9 (Homo sapiens (Human), UniProt P11712); assay: CYP inhibition, CYP2C9; format: in vitro ADME
[16] = molecular target: MEK5 (Homo sapiens (Human), UniProt Q13163); assay: DiscoveRx Kd dose response, MEK5; format: binding
Description: as §2

[17] = molecular target: CYP2B6 (Homo sapiens (Human), UniProt P20813); assay: CYP inhibition, CYP2B6; format: in vitro ADME
Sequence of CYP2B6 (P20813 whole entry): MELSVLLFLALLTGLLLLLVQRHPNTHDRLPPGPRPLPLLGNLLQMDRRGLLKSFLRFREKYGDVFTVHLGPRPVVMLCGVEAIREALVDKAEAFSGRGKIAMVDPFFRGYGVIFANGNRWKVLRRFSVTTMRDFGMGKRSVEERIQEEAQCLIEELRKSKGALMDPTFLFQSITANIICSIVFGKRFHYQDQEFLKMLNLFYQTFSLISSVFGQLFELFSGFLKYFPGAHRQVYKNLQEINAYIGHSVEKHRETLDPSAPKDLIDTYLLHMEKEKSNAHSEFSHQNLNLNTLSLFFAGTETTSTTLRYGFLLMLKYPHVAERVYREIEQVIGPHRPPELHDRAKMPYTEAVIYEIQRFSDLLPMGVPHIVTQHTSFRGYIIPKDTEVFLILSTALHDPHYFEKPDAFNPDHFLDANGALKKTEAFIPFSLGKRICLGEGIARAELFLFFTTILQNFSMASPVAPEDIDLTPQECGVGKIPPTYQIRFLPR

Sequence of EGFR (P00533 25-1210): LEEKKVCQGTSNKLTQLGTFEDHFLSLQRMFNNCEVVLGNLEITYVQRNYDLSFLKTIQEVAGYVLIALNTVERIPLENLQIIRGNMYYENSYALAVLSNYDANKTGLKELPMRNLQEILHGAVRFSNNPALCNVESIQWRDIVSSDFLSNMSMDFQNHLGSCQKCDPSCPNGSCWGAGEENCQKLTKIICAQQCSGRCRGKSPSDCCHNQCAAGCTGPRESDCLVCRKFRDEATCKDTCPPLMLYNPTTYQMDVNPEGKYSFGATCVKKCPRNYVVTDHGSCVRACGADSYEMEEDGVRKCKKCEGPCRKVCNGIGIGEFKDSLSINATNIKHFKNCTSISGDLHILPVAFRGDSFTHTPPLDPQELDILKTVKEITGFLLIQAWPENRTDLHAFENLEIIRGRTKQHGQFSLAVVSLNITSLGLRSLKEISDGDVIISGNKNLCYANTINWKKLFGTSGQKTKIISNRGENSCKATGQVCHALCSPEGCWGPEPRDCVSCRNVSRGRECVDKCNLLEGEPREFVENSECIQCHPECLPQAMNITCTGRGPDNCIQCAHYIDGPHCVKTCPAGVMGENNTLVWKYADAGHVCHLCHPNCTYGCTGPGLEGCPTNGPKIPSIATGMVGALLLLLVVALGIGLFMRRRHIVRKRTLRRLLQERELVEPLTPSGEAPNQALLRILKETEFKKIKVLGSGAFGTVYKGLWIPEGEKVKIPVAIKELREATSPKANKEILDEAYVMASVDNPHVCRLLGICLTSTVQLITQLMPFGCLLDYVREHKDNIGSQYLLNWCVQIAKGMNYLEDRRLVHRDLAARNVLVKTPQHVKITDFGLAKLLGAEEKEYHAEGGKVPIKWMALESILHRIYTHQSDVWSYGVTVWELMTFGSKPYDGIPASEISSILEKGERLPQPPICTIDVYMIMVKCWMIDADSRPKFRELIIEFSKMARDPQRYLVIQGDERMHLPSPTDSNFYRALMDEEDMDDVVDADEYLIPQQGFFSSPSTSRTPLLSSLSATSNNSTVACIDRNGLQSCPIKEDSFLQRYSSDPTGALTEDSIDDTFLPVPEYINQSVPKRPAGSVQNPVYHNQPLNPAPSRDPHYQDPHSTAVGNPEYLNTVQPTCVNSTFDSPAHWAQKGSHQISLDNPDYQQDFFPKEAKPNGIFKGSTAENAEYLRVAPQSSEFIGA

IC50 [1]: > 10 µM
less potent than acalabrutinib with regard to BTK inhibition [2]: approximately 50%
kinact/KI [3]: 16500 M⁻¹ s⁻¹
kinact ([3]; derived from IC50 values over time (Krippendorff method)): 0.0031 ± 0.0003 s⁻¹
Ki ([3]; derived from IC50 values over time (Krippendorff method), tracer Km=102 nM): 188 ± 9 nM
Kd [4]: 1100 nM
Kd [5]: 120 nM
Kd [6]: 40 nM
Kd [7]: 150 nM
Kd [8]: 400 nM
IC50 [9]: 343 ± 23 nM
IC50 [10]: 6.17 ± 3.35 µM
CYP1A2 inhibition [11]: does not inhibit
Kd [12]: 29 nM
CYP2C19 inhibition [13]: weak inhibitor
IC50 [14]: > 10 µM
CYP2C9 inhibition [15]: weak inhibitor
Kd [16]: 69 nM
CYP2B6 inhibition [17]: does not inhibit
SMILES: CC#CC(=O)NCCCC(=O)c1nc(-c2ccc(C(=O)Nc3ccccn3)cc2)c2c(N)nccn12 [Formula (I), 4-(8-amino-3-(4-(but-2-ynamido)butanoyl)imidazo[1,5-a]pyrazin-1-yl)-N-(pyridin-2-yl)benzamide]
